Measured values reported in patent US20020035061A1, “COMPOSITIONS AND METHODS FOR TREATING INFECTIONS USING CATIONIC PEPTIDES ALONE OR IN COMBINATION WITH ANTIBIOTICS” (priority 1996, published 2002).
Where two headings read alike, the source gives them in different places.

Tests used:
[1] = tested on: mammalian red blood cells; conditions: 37° C., 1 hour
Experimental: Candidate cationic peptides may be further tested for their toxicity to normal mammalian cells. An exemplary assay is a red blood cell (RBC) (erythrocyte) hemolysis assay. Briefly, in this assay, red blood cells are isolated from whole blood, typically by centrifugation, and washed free of plasma components. A 5% (v/v) suspension of erythrocytes in isotonic saline is incubated with different concentrations of peptide analogue. […] After incubation for approximately 1 hour at 37° C., the cells are centrifuged, and the absorbance of the supernatant at 540 nm is determined. A relative measure of lysis is determined by comparison to absorbance after complete lysis of erythrocytes using NH4Cl or equivalent (establishing a 100% value). A peptide with <10% lysis at 100 μg/ml is suitable. Preferably, there is <5% lysis at 100 μg/ml. Such peptides that are not lytic, or are only moderately lytic, are desirable and suitable for further screening.
Cationic peptides are tested for toxicity towards eukaryotic cells by measuring the extent of lysis of mammalian red blood cells (RBC). Briefly, in this assay, red blood cells are separated from whole blood by centrifugation and washed free of plasma components. A 5% (v/v) washed red blood cell suspension is prepared in isotonic saline. An aliquot of peptide in formulation is then added and mixed in. After incubation at 37° C. for 1 hour with constant agitation, the solution is centrifuged and the supernatant measured for absorbance at 540 nm to detect released hemoglobin.
A combination of cationic peptide and antibiotic agent is tested for toxicity towards eukaryotic cells by measuring the extent of lysis of mammalian red blood cells. Briefly, red blood cells are separated from whole blood by centrifugation, washed free of plasma components, and resuspended to a 5% (v/v) suspension in isotonic saline. […] Following incubation with constant agitation at 37° C. for 1 hour, the solution is centrifuged, and the absorbance of the supernatant is measured at 540 nm, which detects released hemoglobin. […]

[2] = tested on: MSSA (Smith, ATCC # 19640); assay: In vivo efficacy, MSSA infection; design: species or system S. aureus; conditions: mice, ip, formulation D, below 14.5 mg/kg
S. marcescens = format: cell-based
S. aureus = format: cell-based; conditions: for Peptide MIC values: agarose dilution
E. cloacae = format: cell-based
K. pneumoniae = format: cell-based
S. pneumoniae = assay: Agarose dilution assay (MIC); format: cell-based; conditions: for Peptide MIC values: agarose dilution
S. epidermidis = format: cell-based
[3] = tested on: E. coli strain ML-35 inner membrane; format: cell-based; conditions: cells pre-incubated with valinomycin
A. calcoaceticus = format: cell-based
E. coli = format: cell-based; conditions: for Peptide MIC values: agarose dilution
P. aeruginosa = format: cell-based; conditions: for Peptide MIC values: agarose dilution
S. maltophilia = format: cell-based
E. faecium = format: cell-based
E. faecalis = format: cell-based; conditions: E. faecalis strain EFS002
P. mirabilis = assay: Agarose dilution assay (MIC); format: cell-based; conditions: P. mirabilis strain PM002
[4] = tested on: microorganisms with acquired resistance; assay: microbe, parasite or virus in culture; format: cell-based
bacterial isolates = assay: microbe, parasite or virus in culture; format: cell-based
S. pyogenes = assay: Agarose dilution assay (MIC); format: cell-based; conditions: S. pyogenes strain SPY005
H. influenzae = assay: Agarose dilution assay (MIC); format: cell-based; conditions: H. influenzae strain HIN002
[5] = A. baumannii ABI001, Tobramycin section
[6] = A. calcoaceticus 3, Piperacillin section
[7] = P. aeruginosa 15, Piperacillin section
[8] = P. aeruginosa PA008, Tobramycin section
[9] = P. aeruginosa PA025, Tobramycin section
[10] = S. marcescens SB1, Piperacillin section
[11] = peptide + Piperacillin, A. calcoaceticus 3
[12] = peptide + Piperacillin, P. aeruginosa 15
[13] = peptide + Piperacillin, S. marcescens SB1
[14] = peptide + Tobramycin, A. baumannii ABI001
[15] = peptide + Tobramycin, P. aeruginosa PA008
[16] = peptide + Tobramycin, P. aeruginosa PA025

CC[C@H](C)[C@H](NC(=O)CNC(=O)[C@@H](NC(=O)[C@H](CCCCN)NC(=O)[C@H](CCCCN)NC(=O)[C@H](Cc1ccccc1)NC(=O)[C@H](CC(C)C)NC(=O)[C@H](CCCCN)NC(=O)[C@H](Cc1c[nH]c2ccccc12)NC(=O)[C@@H](N)CCCCN)[C@@H](C)CC)C(=O)NCC(=O)N[C@@H](C)C(=O)N[C@H](C(=O)N[C@@H](CC(C)C)C(=O)N[C@@H](CCCCN)C(=O)N[C@H](C(=O)N[C@@H](CC(C)C)C(=O)N[C@H](C(=O)N[C@H](C(=O)NCC(=O)N[C@@H](CC(C)C)C(=O)N1CCC[C@H]1C(=O)N[C@@H](C)C(=O)N[C@@H](CC(C)C)C(=O)N[C@H](C(=O)N[C@@H](CO)C(=O)O)[C@@H](C)CC)[C@@H](C)O)[C@@H](C)O)C(C)C)C(C)C [MBI 27]
% Lysis [1]: 2.7%

ILPWKWPWWPWRR [MBI 10CN]
survival [2]: clear dose-dependent survival | MIC (S. marcescens; S. marcescens SMS004): >128 µg/mL | Peptide MIC values (S. marcescens; agarose dilution, S. marcescens SM82): >128 µg/mL | MIC (S. aureus; S. aureus SA003): 2 µg/mL | Peptide MIC values (S. aureus; S. aureus MRSA9): 1 µg/mL | Peptide MIC values (S. aureus; S. aureus MRSA13): 4 µg/mL | Peptide MIC values (S. aureus; S. aureus MRSA17): 2 µg/mL | MIC (E. cloacae; E. cloacae ECL007): >128 µg/mL | MIC (K. pneumoniae; K. pneumoniae KP002): 64 µg/mL | Peptide MIC values (S. pneumoniae; S. pneumoniae 406LE8): >128 µg/mL | Peptide MIC values (S. pneumoniae; S. pneumoniae 60120): 64 µg/mL | Peptide MIC values (S. pneumoniae; S. pneumoniae ATCC 49619): 32 µg/mL | MIC (S. epidermidis; S. epidermidis SE010): 4 µg/mL | ONPG hydrolysis diminished compared to no pre-incubation [3]: approximately 50% | MIC (A. calcoaceticus; A. calcoaceticus AC001): 64 µg/mL | MIC (E. coli; E. coli ECO001): 32 µg/mL | MIC (E. coli; E. coli SBECO2): 16 µg/mL | Peptide MIC values (E. coli; E. coli ATCC 25922): 16 µg/mL | Peptide MIC values (E. coli; E. coli NCTC 10418): 8 µg/mL | MIC (P. aeruginosa; P. aeruginosa PA002): >128 µg/mL | Peptide MIC values (P. aeruginosa; P. aeruginosa ATCC 27853): >128 µg/mL | Peptide MIC values (P. aeruginosa; P. aeruginosa NCTC 10662): >128 µg/mL | MIC (S. maltophilia; S. maltophilia SMA002): 64 µg/mL | MIC (E. faecium; E. faecium EFM003): 2 µg/mL | Peptide MIC values (E. faecium; agarose dilution): 4 µg/mL

ILRRVJPWWPWRRR [MBI 11B9CN]
MIC (E. faecalis): 8 µg/mL | MIC (P. mirabilis): >128 µg/mL | MIC (S. marcescens; S. marcescens strain SMS003): >128 µg/mL | MIC (S. aureus; S. aureus strain SA010): 4 µg/mL | MIC (E. cloacae; E. cloacae strain ECL007): >128 µg/mL | MIC (K. pneumoniae; K. pneumoniae strain KP001): 32 µg/mL | MIC (S. pneumoniae; S. pneumoniae strain SBSPN2): >128 µg/mL | MIC (S. pneumoniae; S. pneumoniae strain SPN044): >128 µg/mL | Peptide MIC + Tobramycin ([4]; A. baumannii ABI001): 8 µg/mL | Tobramycin MIC + Peptide ([4]; A. baumannii ABI001): 4 µg/mL | Peptide MIC Alone [4, 5]: 32 µg/mL | Peptide MIC + Piperacillin ([4]; A. calcoaceticus 3): 16 µg/mL | Piperacillin MIC + Peptide ([4]; A. calcoaceticus 3): 16 µg/mL | Peptide MIC Alone [4, 6]: 32 µg/mL | Peptide MIC + Tobramycin ([4]; E. coli EC0006): 8 µg/mL | Tobramycin MIC + Peptide ([4]; E. coli EC0006): 4 µg/mL | Peptide MIC Alone ([4]; E. coli EC0006, Tobramycin section): 32 µg/mL | Peptide MIC + Piperacillin ([4]; P. aeruginosa 12): 64 µg/mL | Piperacillin MIC + Peptide ([4]; P. aeruginosa 12): 64 µg/mL | Peptide MIC Alone ([4]; P. aeruginosa 12, Piperacillin section): 128 µg/mL | Peptide MIC + Piperacillin ([4]; P. aeruginosa 15): 64 µg/mL | Piperacillin MIC + Peptide ([4]; P. aeruginosa 15): 64 µg/mL | Peptide MIC Alone [4, 7]: >128 µg/mL | Peptide MIC + Tobramycin ([4]; P. aeruginosa PA008): 64 µg/mL | Tobramycin MIC + Peptide ([4]; P. aeruginosa PA008): 0.125 µg/mL | Peptide MIC Alone [4, 8]: 128 µg/mL | Peptide MIC + Tobramycin ([4]; P. aeruginosa PA025): 64 µg/mL | Tobramycin MIC + Peptide ([4]; P. aeruginosa PA025): 2 µg/mL | Peptide MIC Alone [4, 9]: 128 µg/mL | Peptide MIC + Piperacillin ([4]; S. maltophilia 2): 16 µg/mL | Piperacillin MIC + Peptide ([4]; S. maltophilia 2): 16 µg/mL | Peptide MIC Alone ([4]; S. maltophilia 2, Piperacillin section): 32 µg/mL | Peptide MIC + Tobramycin ([4]; S. maltophilia SMA027): 32 µg/mL | Tobramycin MIC + Peptide ([4]; S. maltophilia SMA027): 4 µg/mL | Peptide MIC Alone ([4]; S. maltophilia SMA027, Tobramycin section): >128 µg/mL | Peptide MIC + Tobramycin ([4]; S. maltophilia SMA031): 32 µg/mL | Tobramycin MIC + Peptide ([4]; S. maltophilia SMA031): 4 µg/mL | Peptide MIC Alone ([4]; S. maltophilia SMA031, Tobramycin section): >128 µg/mL | Peptide MIC + Piperacillin ([4]; S. marcescens SB1): 2 µg/mL | Piperacillin MIC + Peptide ([4]; S. marcescens SB1): 16 µg/mL | Peptide MIC Alone [4, 10]: >128 µg/mL | FIC [4, 11]: 0.75 | FIC ([4]; peptide + Piperacillin, P. aeruginosa 12): 0.75 | FIC [4, 12]: 0.50 | FIC ([4]; peptide + Piperacillin, S. maltophilia 2): 0.75 | FIC [4, 13]: 0.26 | FIC [4, 14]: 0.50 | FIC ([4]; peptide + Tobramycin, E. coli EC0006): 0.75 | FIC [4, 15]: 0.50 | FIC [4, 16]: 0.56 | FIC ([4]; peptide + Tobramycin, S. maltophilia SMA027): 0.63 | FIC ([4]; peptide + Tobramycin, S. maltophilia SMA031): 0.19 | MIC (S. epidermidis; S. epidermidis strain SE010): 2 µg/mL | MIC (A. calcoaceticus; A. calcoaceticus strain AC002): 4 µg/mL | MIC (E. coli; E. coli strain ECO005): 8 µg/mL | Peptide MIC + Tobramycin (bacterial isolates; A. baumannii ABI001): 8 µg/mL | Tobramycin MIC + Peptide (bacterial isolates; A. baumannii ABI001): 4 µg/mL | Peptide MIC Alone (bacterial isolates; [5]): 32 µg/mL | Peptide MIC + Piperacillin (bacterial isolates; A. calcoaceticus 3): 2 µg/mL | Piperacillin MIC + Peptide (bacterial isolates; A. calcoaceticus 3): 32 µg/mL | Peptide MIC Alone (bacterial isolates; [6]): 32 µg/mL | Peptide MIC + Tobramycin (bacterial isolates; B. cepacia BC002): 32 µg/mL | Tobramycin MIC + Peptide (bacterial isolates; B. cepacia BC002): 64 µg/mL | Peptide MIC Alone (bacterial isolates; B. cepacia BC002, Tobramycin section): >128 µg/mL | Peptide MIC + Piperacillin (bacterial isolates; H. influenzae 3): 0.125 µg/mL | Piperacillin MIC + Peptide (bacterial isolates; H. influenzae 3): 0.25 µg/mL | Peptide MIC Alone (bacterial isolates; H. influenzae 3, Piperacillin section): >128 µg/mL | Peptide MIC + Piperacillin (bacterial isolates; H. influenzae SB1): 0.125 µg/mL | Piperacillin MIC + Peptide (bacterial isolates; H. influenzae SB1): 0.25 µg/mL | Peptide MIC Alone (bacterial isolates; H. influenzae SB1, Piperacillin section): >128 µg/mL | Peptide MIC + Piperacillin (bacterial isolates; P. aeruginosa 15): 64 µg/mL | Piperacillin MIC + Peptide (bacterial isolates; P. aeruginosa 15): 64 µg/mL | Peptide MIC Alone (bacterial isolates; [7]): >128 µg/mL | Peptide MIC + Piperacillin (bacterial isolates; P. aeruginosa 23): 0.5 µg/mL | Piperacillin MIC + Peptide (bacterial isolates; P. aeruginosa 23): 16 µg/mL | Peptide MIC Alone (bacterial isolates; P. aeruginosa 23, Piperacillin section): 64 µg/mL | Peptide MIC + Tobramycin (bacterial isolates; P. aeruginosa PA008): 64 µg/mL | Tobramycin MIC + Peptide (bacterial isolates; P. aeruginosa PA008): 0.125 µg/mL | Peptide MIC Alone (bacterial isolates; [8]): 128 µg/mL | Peptide MIC + Tobramycin (bacterial isolates; P. aeruginosa PA025): 64 µg/mL | Tobramycin MIC + Peptide (bacterial isolates; P. aeruginosa PA025): 2 µg/mL | Peptide MIC Alone (bacterial isolates; [9]): 128 µg/mL | Peptide MIC + Piperacillin (bacterial isolates; S. aureus 19 MRSA): 1 µg/mL | Piperacillin MIC + Peptide (bacterial isolates; S. aureus 19 MRSA): 16 µg/mL | Peptide MIC Alone (bacterial isolates; S. aureus 19 MRSA, Piperacillin section): 4 µg/mL | Peptide MIC + Piperacillin (bacterial isolates; S. aureus SB2MRSA): 1 µg/mL | Piperacillin MIC + Peptide (bacterial isolates; S. aureus SB2MRSA): 8 µg/mL | Peptide MIC Alone (bacterial isolates; S. aureus SB2MRSA, Piperacillin section): 2 µg/mL | Peptide MIC + Piperacillin (bacterial isolates; S. maltophilia 5): 64 µg/mL | Piperacillin MIC + Peptide (bacterial isolates; S. maltophilia 5): 64 µg/mL | Peptide MIC Alone (bacterial isolates; S. maltophilia 5, Piperacillin section): >128 µg/mL | Peptide MIC + Piperacillin (bacterial isolates; S. maltophilia 13): 32 µg/mL | Piperacillin MIC + Peptide (bacterial isolates; S. maltophilia 13): 64 µg/mL | Peptide MIC Alone (bacterial isolates; S. maltophilia 13, Piperacillin section): >128 µg/mL | Peptide MIC + Tobramycin (bacterial isolates; S. maltophilia SMA029): 16 µg/mL | Tobramycin MIC + Peptide (bacterial isolates; S. maltophilia SMA029): 4 µg/mL | Peptide MIC Alone (bacterial isolates; S. maltophilia SMA029, Tobramycin section): >128 µg/mL | Peptide MIC + Piperacillin (bacterial isolates; S. marcescens SB1): 2 µg/mL | Piperacillin MIC + Peptide (bacterial isolates; S. marcescens SB1): 16 µg/mL | Peptide MIC Alone (bacterial isolates; [10]): >128 µg/mL | FIC (bacterial isolates; [11]): 0.56 | FIC (bacterial isolates; peptide + Piperacillin, H. influenzae 3): 0.50 | FIC (bacterial isolates; peptide + Piperacillin, H. influenzae SB1): 0.50 | FIC (bacterial isolates; [12]): 0.50 | FIC (bacterial isolates; peptide + Piperacillin, P. aeruginosa 23): 0.13 | FIC (bacterial isolates; peptide + Piperacillin, S. aureus 19 MRSA): 0.38 | FIC (bacterial isolates; peptide + Piperacillin, S. aureus SB2MRSA): 0.56 | FIC (bacterial isolates; peptide + Piperacillin, S. maltophilia 5): 0.50 | FIC (bacterial isolates; peptide + Piperacillin, S. maltophilia 13): 0.38 | FIC (bacterial isolates; [13]): 0.26 | FIC (bacterial isolates; [14]): 0.50 | FIC (bacterial isolates; peptide + Tobramycin, B. cepacia BC002): 0.38 | FIC (bacterial isolates; [15]): 0.50 | FIC (bacterial isolates; [16]): 0.56 | FIC (bacterial isolates; peptide + Tobramycin, S. maltophilia SMA029): 0.13 | MIC (S. pyogenes): 16 µg/mL | MIC (H. influenzae): >128 µg/mL | MIC (P. aeruginosa; P. aeruginosa strain PA004): 128 µg/mL | MIC (S. maltophilia; S. maltophilia strain SMA002): 32 µg/mL | MIC (E. faecium; E. faecium strain EFM002): 4 µg/mL
